# Source: patent US20250041290A1, “USE OF N-(3-(4-(3-(DIISOBUTYLAMINO)PROPYL)PIPERAZIN-1-YL)PROPYL)-1H-BENZO[d]IMIDAZOL-2-AMINE SUCCINATE SALTS AND SOLVATES THEREOF FOR THE TREATMENT OF MOTOR NEURON DISEASES AND NEUROMUSCULAR JUNCTION DISORDERS” (ALZPROTECT, priority 2021, published 2025)
# Experiments:
# [1] = tested on: SOD1^G93A Tg rat spinal cord motor neurons; assay: Primary culture of SOD1^G93A Tg rat spinal cord motor neurons injured with glutamate, 48 h incubation; assay type: cell-based; settings: glutamate 5 μM 20 min; for Protective effects of reference drugs after glutamate injury: concentration not given
# Description: Female (Sprague Dawley, Janvier) were mated at Neuro-Sys (Gardanne, France) with Tg SOD1^G93A male rats (Taconic Bioscience, US). Pregnant females of 14 days of gestation were used for the culture. The day of the dissection, a piece of each embryo head (˜3 mm^3) was placed in a 2 mL DNase free tube with a new scalpel. The DNA was extracted with the SYBR Green Extract-N-Amp tissue PCR kit (Sigma Aldrich). Briefly, 120 μL of extraction solution was put on each piece of embryo heads. Then, they were incubated for 10 min at room temperature. At the end of this incubation period, the heads were incubated for 5 min at 95° C. Immediately after this last incubation, 100 μL of neutralizing solution was added; each DNA extract was diluted at 1/40 and stored at +4° C. until use. SOD1^G93A gene was determined using genomic fragment with human SOD1 primers (5′-[…]-3′ SEQ ID NO: 1; 5′-[…]-3′ SEQ ID NO:2). The SOD1 primers were diluted at 3 μM in sterile ultrapure water. Briefly, a mix for PCR was prepared with ultrapure water (4 μL per sample), primer at 3 μM (2 μL per sample) and Master Mix (10 μL per sample). In a PCR 96 wells plate, 16 μL of PCR mix was added in each well. 4 μL of each diluted DNA was added according to a plan deposit.
# Rat spinal cord motor neurons were cultured as described by Boussicault et al., J Neurosci Res. 2020 December; 98 (12), 2435-50 and Wang et al. Hum. Mol. Genet., 2013 December 1; 22 (23), 4706-19. Pregnant female rats of 14 days of gestation were killed by cervical dislocation. The culture was carried out as described in example 1.
# On day 13, culture medium was removed and cultures were exposed to the test compounds: N-(3-(4-(3-(diisobutylamino)propyl)piperazin-1-yl)propyl)-1H-benzo[d]imidazol-2-amine) sesqui-succinate salt Form 1, in comparison to Riluzole and Edaravone, and glutamate (5 μM) for 20 min at 37° C. in defined medium. After glutamate exposure, the cultures were washed with defined medium at 37° C. then placed in fresh culture medium containing the test compound, Riluzole or Edavarone for additional 48h.
# • The end point evaluation was carried out as described in example 1.
# (§1) The statistical analysis was carried out as described in example 1.
# people with ALS = settings: injected intravenously; small subset of people with ALS; phase 3; cited from earlier work
# [2] = tested on: neuromuscular junctions in co-culture of human myoblasts and rat spinal cord explants; assay: Co-culture of human myoblasts and rat spinal cord explants (neuromuscular junctions) injured with glutamate; assay type: cell-based; settings: glutamate 60 μM 20 min, 48 h incubation
# [3] = tested on: Rat spinal cord motor neurons (MN); assay: Rat primary spinal cord motor neurons injured with glutamate, 48 h incubation with compound; assay type: cell-based; settings: glutamate 5 μM 20 min
# Description: Rat spinal cord motor neurons (MN) were cultured as previously described by Boussicault et al., J Neurosci Res. 2020 December; 98 (12), 2435-50 and Wang et al. Hum. Mol. Genet., 2013-12-1; 22 (23), 4706-19. Pregnant female rats of 14 days gestation (Rats Wistar; Janvier Labs France) were killed using a deep anesthesia with CO2 chamber followed by cervical dislocation. Then, embryos (E14) were removed from the uterus and immediately placed in ice-cold L15 Leibovitz medium with a 2% penicillin (10,000 U/mL) and streptomycin (10 mg/mL) solution (PS) and 1% bovine serum albumin (BSA). Spinal cords were removed and placed in ice-cold medium of Leibovitz (L15). Spinal cords were treated for 20 min at 37° C. with a trypsin-Ethylenediaminetetraacetic acid (EDTA) solution at a final concentration of 0.05% trypsin and 0.02% EDTA. The dissociation was stopped by the addition of Dulbecco's modified Eagle's medium (DMEM) with 4.5 g/liter of glucose, containing DNAse I grade II (final concentration 0.5 mg/mL) and 10% fetal calf serum (FCS). Cells were mechanically dissociated by three forced passages through the tip of a 10-mL pipette. Cells were then centrifuged at 515×g for 10 min at +4° C. The supernatant was discarded, and the pellet was resuspended in a defined culture medium consisting of Neurobasal medium with a 2% solution of B27 supplement, 2 mmol/liter of L-glutamine, 2% of PS solution, and 10 ng/ml of brain-derived neurotrophic factor (BDNF). Viable cells were counted in a Neubauer cytometer, using the trypan blue exclusion test. The cells were seeded at a density of 20,000 per well in 96-well plates precoated with poly-L-lysine and cultured at 37° C. in an air (95%)-CO2 (5%) incubator. The medium was changed every 2 days.
# On day 13 of culture, glutamate was added to a final concentration of 5 μM diluted in control medium in presence of the sesqui-succinate Form 1 for 20 min. After 20 min, glutamate was washed and fresh culture medium with the sesqui-succinate Form 1 was added for 48 hours.
# After 15 days of culture (48h after the glutamate injury), the cell culture supernatant was collected and the spinal cord MNs were fixed by a cold solution of ethanol (95%) and acetic acid (5%) for 5 min at −20° C. for immunostaining. Cells were washed twice in PBS. Cell membranes were permeabilized and non-specific sites were blocked with a solution of PBS containing 0.1% of saponin and 1% FCS for 15 min at room temperature. Then, cells were incubated for 2 hours with: • a) mouse monoclonal antibody anti-microtubule associated protein 2 (MAP-2) at dilution of 1/400 in PBS containing 1% fetal calf serum and 0.1% of saponin. This antibody binds specifically MAP-2 present in cell bodies and neurites of all MNs. […] Cytoplasmic localization of TDP43 was investigated.
# Nuclei of neurons were counterstained with the fluorescent dye (Hoechst).
# For each condition, 30 pictures (representative of the whole well area) per well were automatically taken using ImageXpress (Molecular Devices) with 20× magnification. All images were taken under the same conditions (exposition time, gain and laser intensity). Analysis of different endpoints, were automatically performed using Custom Module Editor (Molecular Devices). Motoneurons (MAP-2) were distinguished from interneurons (staining MAP-2) using the following morphological criteria: a cell body diameter […] and the presence of a minimum of three neuritic processes (Ferraiuolo et al. Brain 2011:134; 2627-2641).
# The endpoints were: • survival of MNs (MAP-2 staining number of MNs) • neurite network of MNs (MAP-2 staining, total neurite length expressed in μm) • cytoplasmic TDP43 (extranuclear, eTDP43) in MAP-2 positive MNs (overlapping between MAP-2 and cytoplasmic TDP-43 in μm^2). Results are expressed as the ratio of the overlapping MAP-2/TDP-43 per number of MNs.
# All values are expressed as mean+/−SEM. Statistical analyses were performed using one-way ANOVA followed by PLSD Fisher test. […]
# [4] = tested on: Rat spinal cord motor neurons (MN); assay: Rat primary spinal cord motor neurons injured with glutamate, 24 h pre-incubation + 24 h post-injury incubation; assay type: cell-based
# Description: The culture was carried out as described in example 1.
# On day 12 of culture, primary motor neurons were treated with the sesqui-succinate Form 1 for 24 hours. On day 13 of culture, glutamate was added to a final concentration of 5 µM diluted in control medium in presence of the sesqui-succinate salt Form 1 for 20 min. After 20 min, glutamate was washed and fresh culture medium with the sesqui-succinate Form 1 was added for an additional 24 hours.
# The end point evaluation was carried out as described in example 1.
# as §1
# [5] = 30 nM to 300 nM, 48 h incubation
# [6] = 30 nM to 300 nM, 24 h pre-incubation + 24 h incubation
compound,measurement,setting,value
"CC1=NN(c2ccccc2)C(=O)C1 [Edaravone, reference compound]",Protective effects of reference drugs after glutamate injury,[1]; FIG. 9,protective effects
same,Decline of ALS Functional Rating Scale-Revised score compared with placebo,people with ALS,significantly smaller decline
N-(3-(4-(3-(diisobutylamino)propyl)piperazin-1-yl)propyl)-1H-benzo[d]imidazol-2-amine sesqui-succinate salt [sesqui-succinate salt Form 1],"Protective effect on neuronal survival, dose relation",[1]; 3 nM to 100 nM,dose-dependent
same,"Protective effect on the distribution of TDP-43, dose relation",[1]; 3 nM to 100 nM,dose-dependent
same,"Neuroprotection (number of MNs, neurite network, TDP-43 distribution) after glutamate injury","[1]; 3 nM to 100 nM, FIG. 9",neuroprotective
same,Protective effects in comparison to Riluzole and Edaravone,[1]; 100 nM,comparable to those of Riluzole or Edaravone
same,Neuroprotective effects on neuromuscular junctions and neurite network,[2]; 300 nM,neuroprotective effects on a dose-dependent manner
same,Number of NMJs,"[2]; 300 nM, versus glutamate, FIG. 10A",increased
same,Total area of NMJs,"[2]; 300 nM, versus glutamate, FIG. 10B",increased
same,Total MNs neurite network (NFH),"[2]; 300 nM, versus glutamate, FIG. 10C",increased
same,Protective effects in comparison to Riluzole,[2],comparable to those of Riluzole
same,"Motor neuron survival (number of MAP-2 positive MNs), mean, percentage of control","[3]; 30 nM (maximal effect), then 48 h with compound, glutamate alone mean 58%, FIG. 7A",79%
same,Effect on motor neuron survival compared to the glutamate condition,[3]; [5],positive and significant effect
same,Effect on neurite network after glutamate injury,[3]; [5],able to improve the neurite network
same,"Neurite network integrity (MAP-2 total neurite length), mean, percentage of control","[3]; 100 nM (maximal effect), 48 h incubation, glutamate alone mean 62%, FIG. 7B",77%
same,Reduction of accumulation of TDP-43 in the cytoplasm (extranuclear TDP-43),"[3]; 300 nM, 48 h incubation, glutamate alone mean 135% of control, FIG. 7C",up to 17%
same,Effect on accumulation of TDP-43 in the cytoplasm (extranuclear TDP-43),"[3]; 30 to 300 nM, 48 h incubation",significantly reduce
same,Effect on motor neuron survival compared to the glutamate condition,[4]; [6],positive and significant effect
same,Effect on neurite network after glutamate damage,[4]; [6],able to protect the neurite network
same,Reduction of abnormal distribution of TDP-43 (extranuclear TDP-43),"[4]; 30 nM to 300 nM, 24 h pre-incubation + 24 h incubation, glutamate alone mean 139% of control, FIG. 8C",up to 14%
same,"Neurite network integrity, mean, percentage of control","[4]; 300 nM (maximal effect), 24 h pre-incubation + 24 h incubation, glutamate alone mean 60%, FIG. 8B",81%
same,"Motor neuron survival, mean, percentage of control","[4]; 300 nM (maximal effect), 24 h pre-incubation, glutamate 5 µM 20 min, 24 h post-injury incubation, glutamate alone mean 62%, FIG. 8A",79%
"Nc1nc2ccc(OC(F)(F)F)cc2s1 [Riluzole, reference compound]",Protective effects of reference drugs after glutamate injury,[1]; FIG. 9,protective effects
same,Protective effects of reference drug after glutamate injury,"[2]; concentration not given, FIG. 10",protective effects
